The target of experiment [1] is T1, human progesterone receptor(PR) (Homo sapiens, UniProt P06401).
T1 construct: expressed in transfected cells; host or cells: HEK293T
T1 sequence (P06401 1-933): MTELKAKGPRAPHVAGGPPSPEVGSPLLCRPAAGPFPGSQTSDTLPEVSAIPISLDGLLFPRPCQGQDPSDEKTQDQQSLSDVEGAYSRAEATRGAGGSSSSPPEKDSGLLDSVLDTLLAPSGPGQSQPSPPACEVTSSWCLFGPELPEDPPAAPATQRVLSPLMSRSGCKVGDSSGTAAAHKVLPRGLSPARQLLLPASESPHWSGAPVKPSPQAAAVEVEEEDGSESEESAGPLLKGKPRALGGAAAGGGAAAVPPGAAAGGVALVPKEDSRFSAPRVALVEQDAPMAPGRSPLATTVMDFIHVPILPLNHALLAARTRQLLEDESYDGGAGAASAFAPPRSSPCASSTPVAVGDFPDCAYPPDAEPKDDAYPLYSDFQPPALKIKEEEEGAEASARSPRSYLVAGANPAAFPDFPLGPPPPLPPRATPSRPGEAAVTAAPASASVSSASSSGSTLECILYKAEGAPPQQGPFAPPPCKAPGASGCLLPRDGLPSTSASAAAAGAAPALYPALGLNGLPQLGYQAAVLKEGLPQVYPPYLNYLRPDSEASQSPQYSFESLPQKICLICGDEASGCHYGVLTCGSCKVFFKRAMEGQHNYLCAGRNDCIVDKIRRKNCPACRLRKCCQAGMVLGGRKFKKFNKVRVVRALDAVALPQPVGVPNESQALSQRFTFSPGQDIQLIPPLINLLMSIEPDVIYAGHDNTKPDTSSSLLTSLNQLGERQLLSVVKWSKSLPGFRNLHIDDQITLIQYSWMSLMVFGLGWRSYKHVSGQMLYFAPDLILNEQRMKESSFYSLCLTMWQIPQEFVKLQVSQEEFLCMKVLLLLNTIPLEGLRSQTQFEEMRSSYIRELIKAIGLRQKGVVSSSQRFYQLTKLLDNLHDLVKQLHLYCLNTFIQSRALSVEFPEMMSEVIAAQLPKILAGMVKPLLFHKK
In words: Test of progesterone receptor agonist activity (MMTV-luciferase transactivation in transfected HEK293T cells). The experiment is classed as cell-based. As to conditions: 24 hours, increasing amounts, Figure 1. On the procedure: The main experimental setting used is the following: HEK293T cells were transiently transfected, using calcium phosphate precipitation technology, with expression vectors pSG5hPR (which permits expression of human progesterone receptor(PR)), pFC31-luc (contains the luciferase gene under the control of the MMTV promoter, which is in turn activated by binding of a progestin to progesterone receptor) and pcbetagal (which permits expression of betagalactosidase), and cultured during 24 hours with increasing amounts of various compositions: • 1. […] Test of progesterone receptor […] activity: transfected cells were cultured with progesterone (1 nM) and increasing amounts of RU486 (a well-known progesterone receptor antagonist) or 3-methoxy-pregnenolone. With this setting, a compound with progesterone receptor antagonist activity competes with progesterone for the occupation of progesterone receptor and results in a progressive loss of transactivation activity when the amount of this compound is increased compared to progesterone.

Another experiment deals with T2, Androgen Receptor (AR) (Rattus norvegicus, UniProt P15207).
T2 construct: host or cells: E. coli
In words: Radioligand binding assay, steroid hormone receptor AR. As to conditions: MAP4343 10 µM; 1.5 nM [^3H] Mibolerone; Rat recombinant E. coli. On the procedure:
Binding affinity of 3β-methoxy-PREG (MAP4343) for receptors of steroid hormones was evaluated using radioligand binding assays.
Table 3. Affinity of MAP4343 (10 µM) for steroid hormones receptors measured by radioligand binding assays. […] None of the results met significance criteria at concentrations used.

The target in experiment [2] is T3, Muscarinic (Cholinergic) M1 (Homo sapiens, UniProt P11229).
T3 construct: expressed in transfected cells; host or cells: CHO cells
As to the kind of experiment: CNS receptor binding assay, M1. As to conditions: MAP4343 10 µM; [^3H] pirenzepine; Human recombinant (CHO cells); read-out: % Inhibition of control specific binding. As for the experimental part: (§1) MAP4343 has been screened for in vitro affinity to 80 different CNS neurotransmitters receptors using various validated binding assays.
(§2) Table 4. In vitro affinity of MAP4343 (10 µM) for CNS neurotransmitter receptors associated with side effects and/or abuse liability. Data are the average of two individual assays for each receptor and are expressed as % inhibition of the control specific binding of the reference compound. Results showing an inhibition higher than 50% are considered to represent significant effects of the test compound.

The next experiment deals with Histaminergic H2 (Homo sapiens, UniProt P25021). As to the kind of experiment: CNS receptor binding assay, H2. As to conditions: MAP4343 10 µM; [^125I] APT; Human recombinant (CHO cells); read-out: % Inhibition of control specific binding. On the procedure: as §1, §2
For experiment [3], the target named is Noradrenergic Transporter (Homo sapiens, UniProt P23975). As to the kind of experiment: CNS receptor binding assay, noradrenergic transporter. Conditions: MAP4343 10 µM; [^3H] nisoxetine; Human recombinant (CHO cells); read-out: % Inhibition of control specific binding. As for the experimental part: as §1, §2
A further experiment concerns the target Serotoninergic 5-HT5A (Homo sapiens, UniProt P47898). In words: CNS receptor binding assay, 5-HT5A. Conditions: MAP4343 10 µM; [^3H] LSD; Human recombinant (CHO cells); read-out: % Inhibition of control specific binding. As for the experimental part:
as §1, §2

Another experiment has as its system GABA (non-selective). As to the kind of experiment: CNS receptor binding assay, GABA (non-selective). Conditions: MAP4343 10 µM; [^3H] GABA; rat cerebral cortex. On the procedure: as §1, §2
The test system of another experiment is Wistar Kyoto (WKY) rats. In words: Elevated-plus maze (EPM), WKY rats. The class given is in vivo, rat. Conditions: acute, MAP4343 10 mg/kg s.c., fluoxetine 10 mg/kg, ketamine 30 mg/kg i.p., Fig. 5D. On the procedure: After a 6-day period of acclimatization, all experimental groups received daily successive subcutaneous (250 µl per rat) and intraperitoneal (1 ml/kg) injections. WI rats received injection of vehicle (sesame oil + saline) while WKY rats were randomly assigned to […], as follow: KWY rats receiving only vehicle (sesame oil + saline) and WKY rats treated with MAP4343 (10 mg/kg, s.c.; rats received in parallel i.p. injections of saline), fluoxetine (10 mg/kg i.p., rats received in parallel s.c. injections of sesame oil) or ketamine (30 mg/kg, i.p.; rats received in parallel s.c. injections of sesame oil) (see Figure 3).
After, a 6-day period of acclimatization, the acute phase of treatment started for 4 days during behavioral tests were performed (Figure 3). All animals were injected 1h30 before the starting of behavioral test.
We used the elevated-plus maze (EPM) as an assay of anxiety-related behavior in rodents (Walf and Frye, 2007). Rats were initially placed in the center of the plus-maze, consisting of two open arms (50 x 10 cm) and two closed arms (50 x 10 cm enclosed by 40 cm walls), in a 50 lux illuminated room and videotaped during 5 min using a computerized system (VideoTrack V2.5, ViewPoint, Lyon, France). The time spent in the open versus closed arms was blindly measured by two independent experimenters from the recorded video, and the open arm-index was calculated as follow: time in the open arms (sec) / [time in open arms (sec) + time in closed arms (sec)].

T2 sequence (P15207 615-902 limits assumed): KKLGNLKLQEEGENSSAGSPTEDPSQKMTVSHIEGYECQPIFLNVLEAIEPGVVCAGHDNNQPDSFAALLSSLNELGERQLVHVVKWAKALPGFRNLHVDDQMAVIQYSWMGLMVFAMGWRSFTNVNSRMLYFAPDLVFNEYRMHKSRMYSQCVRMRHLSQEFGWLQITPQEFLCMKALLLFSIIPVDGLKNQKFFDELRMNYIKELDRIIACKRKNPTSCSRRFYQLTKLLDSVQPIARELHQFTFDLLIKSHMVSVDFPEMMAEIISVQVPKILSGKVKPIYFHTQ
Histaminergic H2, sequence (P25021 whole entry): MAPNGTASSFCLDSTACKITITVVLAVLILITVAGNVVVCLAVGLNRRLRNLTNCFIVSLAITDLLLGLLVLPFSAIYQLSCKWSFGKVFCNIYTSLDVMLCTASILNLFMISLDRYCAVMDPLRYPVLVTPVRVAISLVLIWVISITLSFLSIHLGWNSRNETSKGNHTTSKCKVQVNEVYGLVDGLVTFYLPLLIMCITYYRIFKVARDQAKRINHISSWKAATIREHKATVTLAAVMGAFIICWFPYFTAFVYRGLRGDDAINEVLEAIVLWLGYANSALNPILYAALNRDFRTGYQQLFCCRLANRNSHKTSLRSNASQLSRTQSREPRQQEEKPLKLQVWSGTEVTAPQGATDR
T3 sequence (P11229 whole entry): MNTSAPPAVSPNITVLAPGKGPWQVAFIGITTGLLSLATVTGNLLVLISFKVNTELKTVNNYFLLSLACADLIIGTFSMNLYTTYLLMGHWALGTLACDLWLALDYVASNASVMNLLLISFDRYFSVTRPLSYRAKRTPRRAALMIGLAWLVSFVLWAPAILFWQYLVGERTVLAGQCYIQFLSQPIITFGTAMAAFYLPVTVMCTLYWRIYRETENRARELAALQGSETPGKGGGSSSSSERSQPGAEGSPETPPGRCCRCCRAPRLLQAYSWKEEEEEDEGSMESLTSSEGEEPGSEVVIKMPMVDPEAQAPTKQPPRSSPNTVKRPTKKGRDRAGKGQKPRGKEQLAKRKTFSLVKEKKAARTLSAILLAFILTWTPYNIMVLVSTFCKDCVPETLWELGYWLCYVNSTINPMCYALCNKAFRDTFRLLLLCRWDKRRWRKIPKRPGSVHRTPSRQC
Noradrenergic Transporter, sequence (P23975 whole entry): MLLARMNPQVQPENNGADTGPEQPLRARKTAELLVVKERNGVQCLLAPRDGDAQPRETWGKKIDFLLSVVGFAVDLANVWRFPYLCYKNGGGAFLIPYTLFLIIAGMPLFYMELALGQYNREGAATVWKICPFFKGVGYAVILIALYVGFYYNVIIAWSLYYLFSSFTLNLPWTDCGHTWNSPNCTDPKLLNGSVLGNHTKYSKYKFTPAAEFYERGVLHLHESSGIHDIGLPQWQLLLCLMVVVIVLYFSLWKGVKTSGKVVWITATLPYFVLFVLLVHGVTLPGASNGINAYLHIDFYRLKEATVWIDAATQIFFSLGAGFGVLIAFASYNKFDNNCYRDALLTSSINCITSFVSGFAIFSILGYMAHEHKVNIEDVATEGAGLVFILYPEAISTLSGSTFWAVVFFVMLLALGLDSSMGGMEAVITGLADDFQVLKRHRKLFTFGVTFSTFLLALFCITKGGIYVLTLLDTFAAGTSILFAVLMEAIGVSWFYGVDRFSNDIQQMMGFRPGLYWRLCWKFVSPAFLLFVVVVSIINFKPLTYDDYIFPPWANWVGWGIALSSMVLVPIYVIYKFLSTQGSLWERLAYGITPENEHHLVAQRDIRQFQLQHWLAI
Serotoninergic 5-HT5A, sequence (P47898 whole entry): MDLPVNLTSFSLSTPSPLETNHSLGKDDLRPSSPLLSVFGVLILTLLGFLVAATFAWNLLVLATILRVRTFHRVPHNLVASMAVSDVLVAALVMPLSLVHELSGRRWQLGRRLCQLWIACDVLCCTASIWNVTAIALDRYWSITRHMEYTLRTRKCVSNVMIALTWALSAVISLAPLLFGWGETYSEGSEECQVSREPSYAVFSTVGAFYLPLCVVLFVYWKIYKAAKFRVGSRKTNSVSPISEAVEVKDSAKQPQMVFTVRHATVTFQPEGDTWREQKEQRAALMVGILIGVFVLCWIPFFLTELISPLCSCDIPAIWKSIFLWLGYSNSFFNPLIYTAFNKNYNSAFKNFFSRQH

As for `CO[C@H]1CC[C@@]2(C)C(=CC[C@H]3[C@@H]4CC[C@H](C(C)=O)[C@@]4(C)CC[C@@H]32)C1` (stereo in doubt) [MAP4343, 3β-methoxy-pregna-5-ene-20-one], the “progesterone receptor agonist activity (transactivation activity leading to the expression of luciferase)” value in experiment [1] was “does not permit such a transactivation activity”. Also, the “% inhibition” value on Androgen Receptor (AR) amounted to 18%. Further, the inhibition at 10 µM at Androgen Receptor (AR) was less than 25%; in experiment [2], -3%; on Histaminergic H2, -21%; in experiment [3] it was 3%; at Serotoninergic 5-HT5A, -5%. In addition, the “% Inhibition of control specific binding” value in the experiment on GABA (non-selective) is 2%. In addition, the “open-arm (OA) index, change when compared to WKY receiving vehicle alone” value with Wistar Kyoto (WKY) rats was determined as 165%.

What is called % inhibition is the relative decrease from the control value, in per cent. What is called inhibition is the change of the read-out against control, counted positive when it falls.
